Data from US8410282B2, “Compounds as adenosine A1 receptor antagonists” (Palobiofarma, S.L., priority 2007, dated 2013).

Key:
[1] = target: T1, hA2a receptors (Homo sapiens, UniProt P29274); assay: Adenosine receptor subtype competition radioligand binding assay, hA2a; conditions: membranes from hA2a receptors transfected to HEK293 cells, [3H]ZM241385 as radioligand, 90 min at 25° C.; read-out: A2a Antagonism (Ki nM)
T1 construct: purchased Receptor Biology, Inc. (USA); host or cells: HEK293 cells
T1 sequence (P29274 whole entry): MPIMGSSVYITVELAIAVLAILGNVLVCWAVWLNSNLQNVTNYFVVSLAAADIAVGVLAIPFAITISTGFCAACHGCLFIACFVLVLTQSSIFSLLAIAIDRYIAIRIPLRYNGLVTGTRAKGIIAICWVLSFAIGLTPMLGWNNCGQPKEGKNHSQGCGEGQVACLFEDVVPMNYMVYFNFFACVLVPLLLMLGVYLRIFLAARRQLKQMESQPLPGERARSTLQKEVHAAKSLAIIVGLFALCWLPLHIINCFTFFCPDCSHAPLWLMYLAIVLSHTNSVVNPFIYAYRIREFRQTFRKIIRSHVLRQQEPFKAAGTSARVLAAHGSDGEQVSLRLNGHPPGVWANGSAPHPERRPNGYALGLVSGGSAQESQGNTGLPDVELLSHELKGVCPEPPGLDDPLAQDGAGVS
Experimental: (§1) Pharmacological Activity Adenosine Receptor Subtype Competition Radioligand Binding Assay
(§2) Human membranes from recombinant adenosine receptors were purchased from Receptor Biology, Inc. (USA)
Competition assays were carried out by incubation of membranes from hA2a receptors transfected to HEK293 cells, [^3H]ZM241385 as radioligand, buffer (50 mM Tris-HCl (pH=7.4), 10 mM MgCl2, 1 mM […], 2 units/ml adenosine deaminase), and unlabelled ligand in a total volume of 0.2 ml for 90 min at 25° C. NECA was used to determinate non-specific binding. Filter over Schleicher & Schuell GF/52 filters (pre-soaked 0.5% polyethylenimine) in a Brandel cell harvester. Unbound radioligand was removed with 3×3 ml ice-cold 50 mM Tris-HCl (pH=7.4), 0.9% NaCl.

[2] = target: T2, hA1 receptors (Homo sapiens, UniProt P30542); assay: Adenosine receptor subtype competition radioligand binding assay, hA1; conditions: membranes from hA1 receptors transfected to CHO cells, [3H]-DPCPX as radioligand, 90 min at 25° C.; read-out: A1 Antagonism (Ki nM)
T2 construct: purchased Receptor Biology, Inc. (USA); host or cells: CHO cells
T2 sequence (P30542 1-326): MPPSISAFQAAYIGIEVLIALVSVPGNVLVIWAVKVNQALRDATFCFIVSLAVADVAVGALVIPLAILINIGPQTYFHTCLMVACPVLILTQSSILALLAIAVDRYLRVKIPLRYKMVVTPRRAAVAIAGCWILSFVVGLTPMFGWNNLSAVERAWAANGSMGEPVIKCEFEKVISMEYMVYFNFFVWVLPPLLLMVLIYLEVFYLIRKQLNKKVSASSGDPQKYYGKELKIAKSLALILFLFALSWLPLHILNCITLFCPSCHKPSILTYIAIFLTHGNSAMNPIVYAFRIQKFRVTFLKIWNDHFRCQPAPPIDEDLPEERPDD
Experimental: as §1, §2
Competition assays were carried out by incubation of membranes from hA1 receptors transfected to CHO cells, [^3H]-DPCPX as radioligand, buffer (HEPES 20 mM (pH=7.4), 10 mM MgCl2, 100 mM NaCl, 2 units/ml adenosine deaminase), and unlabelled ligand in a total volume of 0.2 ml for 90 min at 25° C. R-PIA was used to determinate non-specific binding. Filter over Schleicher & Schuell GF/52 filters (pre-soaked 0.5% polyethylenimine) in a Brandel cell harvester. Unbound radioligand was removed with HEPES 30 mM (3×250 μl), NaCl (100 mM) and MgCl2 (10 mM).

Ki [1] [nM] | Ki [2] [nM] | Structure (SMILES)
> 1200 | 17 | N#Cc1sc(NC(=O)[C@@H]2CCC[C@H](C(=O)O)C2)nc1-c1ccccc1 (relative stereo) [Example 8, Cis-3-(5-cyano-4-phenyl-1,3-thiazol-2-ylcarbamoyl)cyclohexane Carboxylic Acid]
3670 | 31 | N#Cc1sc(NC(=O)[C@@H]2CCC[C@H](C(=O)O)C2)nc1-c1ccccc1Cl (relative stereo) [Example 26, Cis-3-[4-(2-chlorophenyl)-5-cyano-1,3-thiazol-2-ylcarbamoyl]cyclohexanecarboxylic Acid]
> 1300 | 16 | N#Cc1sc(NC(=O)[C@@H]2CC[C@H](C(=O)O)C2)nc1-c1ccccc1F (relative stereo) [Example 50, Cis-3-[5-cyano-4-(2-fluorophenyl)-1,3-thiazol-2-ylcarbamoyl]cyclopentanecarboxylic Acid]
1840 | 14 | N#Cc1sc(NC(=O)[C@@H]2CCC[C@H](C(=O)O)C2)nc1-c1cccc(F)c1 (relative stereo) [Example 75, Cis-3-[5-cyano-4-(3-fluorophenyl)-1,3-thiazol-2-ylcarbamoyl]cyclohexanecarboxylic Acid]
> 10000 | 32 | N#Cc1sc(NC(=O)[C@@H]2CCC[C@H](C(=O)O)C2)nc1-c1cc(F)cc(F)c1 (relative stereo) [Example 114, Cis-3-[5-cyano-4-(3,5-difluorophenyl)-1,3-thiazol-2-ylcarbamoyl]cyclohexanecarboxylic Acid]
> 10000 | 43 | CC(C)(CCC(=O)O)C(=O)Nc1nc(-c2ccccc2)c(C#N)s1 [Example 2, 4-(5-cyano-4-phenyl-1,3-thiazol-2-ylcarbamoyl)-4-methylpentanoic Acid]
940 | 6.4 | N#Cc1sc(NC(=O)C2CCC(C(=O)O)C2)nc1-c1ccccc1 (stereo not shown) [Example 5, 3-(5-cyano-4-phenyl-1,3-thiazol-2-ylcarbamoyl)cyclopentane Carboxylic Acid]
1080 | 7 | N#Cc1sc(NC(=O)[C@H]2CC[C@@H](C(=O)O)CC2)nc1-c1ccccc1 [Example 10, Cis-4-(5-cyano-4-phenyl-1,3-thiazol-2-ylcarbamoyl)cyclohexane Carboxylic Acid]
487 | 25 | N#Cc1sc(NC(=O)[C@H]2CC[C@H](C(=O)O)CC2)nc1-c1cccc(Cl)c1 [Example 36, trans-4-[4-(3-chlorophenyl)-5-cyano-1,3-thiazol-2-ylcarbamoyl]cyclohexanecarboxylic Acid]
> 4000 | 51 | CC(C)(CCC(=O)O)C(=O)Nc1nc(-c2cccc(F)c2)c(C#N)s1 [Example 68, 4-[5-cyano-4-(3-fluorophenyl)-1,3-thiazol-2-ylcarbamoyl]-4-methylpentanoic Acid]
776 | 6 | N#Cc1sc(NC(=O)[C@H]2CC[C@@H](C(=O)O)CC2)nc1-c1cccc(F)c1 [Example 77, Cis-4-[5-cyano-4-(3-fluorophenyl)-1,3-thiazol-2-ylcarbamoyl]cyclohexanecarboxylic Acid]
